Data: patent EP0719546B1, “LUV comprising saturated phospholipids and method of making the same” (THE LIPOSOME COMPANY, INC., priority 1987, dated 1988)
Where a name gives a salt, the structure may show the parent alone.

Experiments:
[1] = Drug uptake into EPC large unilamellar vesicles with proton gradient; type: physicochemical; settings: 300 mM citric acid pH 4.0 inside, pH 7.5 outside; for encapsulation by the vesicles: EPC LUVs (100 nm filters), 25°C
Experimental: Egg phosphatidylcholine (15 mg) was dispersed in 2 ml of 300 mM citric acid, pH 4.0 and the resulting MLVs frozen in liquid nitrogen and thawed in warm water (approximately 35°C) a total of five times. The lipid was then extruded 10 times through two stacked 100 nm pore size polycarbonate filters using the LUVET procedure. A proton gradient was created by passage of the vesicles over a Sephadex G-50 (fine) column (1.5 cm x 10 cm) preequilibrated with 300 mM NaCl, 20 mM HEPES, pH 7.5. An aliquot of the large unilamellar vesicles eluted from the column was diluted in 300 mM NaCl, […], pH 7.5 to a lipid concentration of 0.75 mgml^-1 in a total volume of 2 ml and then daunorubicin (113 ug) added from a stock solution (5.64 mgml^-1) in distilled water. The mixture was incubated at room temperature (25°C) and at intervals of 2, 10, 20, 30, 60 and 120 minutes, 100 ul aliquots were centrifuged through 1 ml "minicolumns" of Sephadex G-50 (fine) to remove any unencapsulated daunorubicin from the vesicles. The concentration of entrapped daunorubicin was determined from its absorbance at 500 nm in a Shimadzu UV-265 spectrophotometer following solubilization of the vesicles in 1% Triton X-100. Lipid was quantified by liquid scintillation counting using tracer levels of ^3H-DPPC. In excess of 98% of the daunorubicin was encapsulated by the vesicles giving a drug to lipid molar ratio of 1:5.
(§1) The materials and procedures of Example 30 were employed except that epirubicin (116 ug) was addded to the vesicle suspension (2 ml) from a stock solution (5.8 mgml^-1). Epirubicin uptake was quantified from its absorbance at 500 nm following solubilization of the vesicles in 1% Triton X-100. Epirubicin encapsulation by the vesicles was in excess of 98% giving a drug to lipid molar ratio of 1:5.
as §1, with “mitoxanthrone (103” for “epirubicin (116”, “added” for “addded”, “(2” for “(5.8”, “Mitoxantrone” for “Epirubicin”, “670” for “500”, “2%” for “1%”
The materials and procedures of Example 30 were employed except that cisplatin (200 uM) was combined with the liposome suspension.

[2] = Doxorubicin entrapment (trapping) efficiency, transmembrane pH gradient loading; type: physicochemical
Experimental: In order to determine whether an ionizable antineoplastic agent will load into liposomes in response to a transmembrane pH gradient, EPC-containing liposomes are made (about 1.0 mM EPC) with a ^3H-DPPC tracer and with a relatively acidic or basic internal medium such as 300 mM citric acid at about pH 4.0. These liposomes are extruded about 10 times according to the LUVET procedure through 2 100 nm filters, followed by adjustment of the external pH to a relatively basic or acidic pH, for example, sodium carbonate, at about pH 11.0. Following the formation of the pH gradient, the agent to be loaded, spiked with a radioactive isotope of the agent, is admixed with the liposomes to about 200 uM (per 1.0 mM lipid used). The liposomes are separated from free, unentrapped agent on G50-M Sephadex minicolumns at 500 X g for 3 minutes into 13 X 100 mm tubes, and radioactivity counted in a scintillation counter. Uptake of the drug in nmoles per umole of lipid is then plotted over incubation time. One hundred percent of the available doxorubicin is taken up into liposomes under these conditions.
In the case of doxorubicin, commercially available forms, such as powdered, solid, and methylparaben-containing forms (Adriamycin R.D.F., Adria Laboratories, Inc., Columbus, Ohio) may be used in the invention. When the methylparaben-containing form is employed, an aqueous solution such as saline may be added to that form, thereby dissolving it, followed by the admixing of this suspension with the liposomes which have the transmembrane pH gradient across their bilayers. Such admixing at 60°C for about 10 minutes results in more than about 98% encapsulation of the doxorubicin.
To determine entrapment efficiency of the liposome preparations, free and liposome encapsulated doxorubicin was monitored spectrophotometrically employing a Shimadzu UV-160 spectrophotometer as follows: the liposomal-doxorubicin samples were diluted with 20 mM Hepes, 250 mM NaCl (pH 7.5) to achieve approximate doxorubicin concentrations between 0.05-0.10 mM. The following sequence of measurements was made; (1) the absorbance at 600 nm of the diluted sample was adjusted to zero; (2) the sample was alkalinized to pH 10.5 with 1.0 N NaOH (0.02 ml/1.0 ml of sample) and the absorbance at 600 nm was recorded within 2 minutes; (3) the spectrophotometer was zeroed against a 0.2% Triton X-100 solution, and (4) the absorbance at 600 nm of the liposomal-doxorubicin sample to which Triton X-100 had been added (0.02 ml 20% Triton X-100 wt./wt./1.0 ml of sample) was determined. Free:total doxorubicin ratios were calculated as the absorbance at 600 nm upon NaOH addition divided by the absorbance after Triton X-100 addition.
To relate the pH-dependent spectral response technique to actual free and trapped drug levels, vesicle entrapped doxorubicin was determined as follows: A small aliquot of the liposomal-doxorubicin solution was passed down Sephadex G-50 gel columns equilibrated in 20 mM Hepes, 150 mM NaCl (pH 7.5) to separate free from liposome-associated drug. The liposome-containing eluant as well as aliquots of the original solutions were assayed for phospholipid and doxorubicin by phosphorus analysis and optical density at 480 nm, respectively as previously described in Mayer et al., (1986), Biochim Biophys. Acta., 857:123.
The materials and procedures of Example 3 were employed, but entrapment efficiency of liposome encapsulated doxorubicin was monitored by comparison of the color resulting from addition of an aliquot (0.2 ml) of the liposomes to 1.0 N NaOH to a color chart.
After completion of the entrapment procedure according to Example 6, 20 ul of the doxorubicin-liposomes were diluted to 200 ul with 20 mM HEPES, 150 mM NaCl (pH 7.5). An aliquot of this diluted sample (20 ul) was assayed for lipid phosphate by the procedure of Bartlett, J. Biol. Chem. 1959, 234:466-468. […]

[3] = system: SC-115 cells; assay: SC-115 tumor growth in Shinogi mice; type: in vivo, Male Shinogi mice; settings: SC-115 tumor, 3.25, 6.5 and 13 mg/kg i.v., 3 injections at seven day intervals
Experimental: Male Shinogi mice (25-40g, 9 per group) were injected subcutaneously with 1X10^5 SC-115 cells obtained from a primary tumor in previously inoculated mice. Tumor growth was monitored by palpation and tumor measurements with a vernier caliper. Upon growth of the tumor to 0.5-2.0 g (tumor weight = [width^2 x length]/2, measurements in mm), mice were administered liposomal doxorubicin dose of 13 mg/kg i.v. at seven day intervals (3 injections of the indicated dose). Tumor growth was monitored 3 times weekly for 50 days post first treatment or until the tumor weight exceeded 9 g at which time the animal was sacrificed. Treatment doses were based on the initial animal weights prior to tumor inoculation.
The above procedure was repeated and the mice were administered saline or empty liposomes (administered at a dose equivalent to that given for a liposomal doxorubicin dose of 13 mg/kg).
The above procedure was repeated at 3.25 mg/kg dose and 6.5 mg/kg dose for free and liposomal doxorubicin.

[4] = In vitro release of doxorubicin from liposomes under dialysis; type: physicochemical; settings: vesicles containing 300 mM citrate (pH 4.0), drug to lipid (wt/wt) ratio 1:10 to 1:3, over 24 hours
Experimental: The materials and-procedures of Example 6 were employed to determine the in vitro stability of the liposome-doxorubicin preparations. Release experiments were performed as follows: 10-fold dilute liposome samples were dialyzed for 24 hours against 1000 volumes of 20 mM HEPES, 150 mM NaCl (pH 7.5) at 37°C. At 1, 2, 4, 8, 10, and 24 hours post-preparation, a 150 ul aliquot was removed and the entrapped doxorubicin was determined.
EPC/cholesterol (55/45 mole ratio) was dried from chloroform to a thin film on a 500 ml capacity round bottom flask (400 mg total lipid). The film was hydrated with 4.0 ml of 300 mM citric acid at pH 4.0, forming MLVs. These MLVs were extruded through 2 stacked 0.22 um Nucleopore membrafil filters followed by extrusion 10 times through a 0.1 um Nucleopore membrafil (tortuous path) filter. To 1.0 ml of the resulting filtrate sample was added 275 ul of 1M Na2CO3, which raised the exterior pH to 8.3. An aliquot (0.6 ml) was heated for 3 minutes at 60°C, as was a 10 mg sample of doxorubicin. The liposome aliquot was added to the 10 mg doxorubicin and heated at 60°C for 5 minutes. The sample was divided into 2 parts. […] At 1 hour, a 150 ul aliquot was removed and analyzed for doxorubicin and lipid phosphate as previously described, after passage down a 1.0 ml Sephadex column equilibrated in the respective buffer. […]

[5] = system: ascites L1210 tumor line; assay: Antitumor activity of vincristine, L1210 lymphocytic leukemia model; type: in vivo, DBA/2J mice; settings: L1210 model in mice
Experimental: The antitumor activity of free and liposomal vincristine was assessed employing an L1210 lymphocytic leukemia model. DBA/2J mice (6 mice per group) were injected i.p. with 1 X 10^6 L1210 cells derived from the ascites fluid of a previously infected mouse. Liposomal vincristine made according to Example 27 was administered i.v. at various times after tumor innoculation and animal weights as well as mortality rates were monitored.
The above example was repeated by administering free vincristine and empty liposomes.

[6] = Vincristine trapping efficiency, pH gradient loading; type: physicochemical; settings: DSPC/cholesterol (55:45) liposomes, 300 mM citric acid pH 4.0, 200 nm filter, drug to lipid approximately 0.17:1, external pH about 7.0, 60°C for 10 minutes
Experimental: These MLVs (100 mg total lipid/ml buffer) were extruded 10 times through a 200 nm pore size polycarbonate filter in a thermojacket LUVET heated to 60°C. Liposomes were added to a solution of 1 mg/ml vincristine sulfate (Oncovin, available from Eli Lilly and Co., Indianapolis, IN) to achieve a drug to total lipid weight ratio of approximately 0.17:1. To this was added a sufficient amount of 1.0 M Na2HPO4 to bring the pH of the solution to about 7.0. The samples were then heated at 60°C for 10 minutes at which time the drug was encapsulated inside the liposomes at a trapping efficiency in excess of 98%.
The above was repeated using EPC/cholesterol and HSPC/cholesterol.

O=C1c2c(O)ccc(O)c2C(=O)c2c(NCCNCCO)ccc(NCCNCCO)c21 [Mitoxantrone, mitoxanthrone]
encapsulation by the vesicles [1]: > 98%

COc1cccc2c1C(=O)c1c(O)c3c(c(O)c1C2=O)C[C@@](O)(C(=O)CO)C[C@@H]3O[C@H]1C[C@H](N)[C@H](O)[C@H](C)O1 [doxorubicin]
available doxorubicin taken up into liposomes ([2]; EPC liposomes (about 1.0 mM), 300 mM citric acid pH 4.0 inside, 100 nm filters, external sodium carbonate, about 200 uM agent): One hundred | trapping efficiency ([2]; Example 14: HSPC/cholesterol 2.4:1 weight ratio, 300 mM citric acid pH 4.0, 0.2 um filter, external pH 8.5, 15 minutes at 60°C, color test): greater than 95% | entrapment efficiency ([2]; Example 21: DSPC liposomes, 300 mM citric acid pH 4.0, 0.2 um filters, external pH 7.8, drug to lipid ratio 0.25:1, 60°C for 5 minutes): greater than 95% | drug entrapped by the liposomes ([2]; Example 26: EPC/cholesterol (55:45 mol ratio), methods of Example 2): Greater than 98% | encapsulation of the doxorubicin ([2]; methylparaben-containing form (Adriamycin R.D.F.) dissolved in saline, admixed with pH gradient liposomes at 60°C for about 10 minutes): more than 98% | entrapment ([2]; vesicles containing 300 mM citrate (pH 4.0), drug to lipid (wt/wt) ratio between 1:10 and 1:3): about 100% | trapping efficiencies ([2]; vesicles, drug to lipid ratios (wt/wt) 0.1:1 to 0.3:1, neutral, negatively charged or saturated phospholipids, varying cholesterol): about 100% | tumor growth inhibition [3]: dose dependent tumor growth inhibition | drug released [4]: less than 5%

CC[C@]1(O)C[C@H]2CN(CCc3c([nH]c4ccccc34)[C@@](C(=O)OC)(c3cc4c(cc3OC)N(C=O)[C@H]3[C@@](O)(C(=O)OC)[C@H](OC(C)=O)[C@]5(CC)C=CCN6CC[C@]43[C@@H]65)C2)C1 [vincristine, vincristine sulfate]
efficacy against the ascites L1210 tumor line [5]: no efficacy | trapping efficiency [6]: > 98%

N.N.[Cl][Pt][Cl] [Cisplatin, cisplatin]
accumulation into liposomes by the transmembrane pH gradient ([1]; EPC LUVs, 200 uM drug): not accumulated

COc1cccc2c1C(=O)c1c(O)c3c(c(O)c1C2=O)C[C@@](O)(C(C)=O)C[C@@H]3O[C@H]1C[C@H](N)[C@H](O)[C@H](C)O1 [daunorubicin]
encapsulation by the vesicles [1]: > 98%

COc1cccc2c1C(=O)c1c(O)c3c(c(O)c1C2=O)C[C@@](O)(C(=O)CO)C[C@@H]3O[C@H]1C[C@H](N)[C@@H](O)[C@H](C)O1 [Epirubicin, epirubicin]
encapsulation by the vesicles [1]: > 98%
